{
  "source": "patent US20030055101A1",
  "about": "“Use of statins to inhibit formation of osteoclasts” (priority 2001, published 2003)",
  "key": {"[1]": {"tested_on": "primary murine bone marrow cell cultures", "experiment": "RANKL-induced osteoclastogenesis in bone marrow cell cultures (TRAP staining)", "type": "cell-based, mouse", "settings": "for number of TRAP-positive cells formed: added 2 days post RANKL stimulation (5 days after isolation)", "experimental": "Bone marrow cells were cultured with 100 ng/mL of M-CSF for 3 days. The cells were further cultured for 5 more days with either atorvastatin, its S,S-enantiomer or osteoprotegerin (OPG) in the presence of RANKL and M-CSF. Cells were then fixed and stained for TRAP. […] The data shown are mean ±SD (n=4 wells/treatment).\nBone marrow cells treated with M-CSF for 3 days were stimulated with RANKL as well as atorvastatin (0.01 nM, […], and 1 μM), its S,S-enantiomer or OPG. In some experiments atorvastatin was added 2 days post RANKL stimulation (5 days after isolation). On Day 8 postisolation, cells were fixed and stained for TRAP. TRAP-positive multinucleated cells were counted and represented. The data shown are mean of ±SD (n=4 wells/treatment).\nBone marrow cells were cultured in the presence of 100 ng/mL of recombinant murine M-CSF for 3 days after isolation. The cells were then stimulated with murine RANKL (100 ng/mL) in the presence of various doses of atorvastatin (0.01 nM, 1 nM, and 1 μM), S,S-enantiomer of atorvastatin, or osteoprotegerin (OPG) and further cultured for 5 more days and stained for TRAP activity (see FIG. 1).\nOsteoclastogenesis involves a series of events which include differentiation, proliferation, activation, and fusion to form multinucleated cells that are capable of resorbing bone. To examine the stage at which atorvastatin inhibits osteoclastogenesis, atorvastatin was added at various times to mouse bone marrow cells in the presence of M-CSF and RANKL.\nBriefly, after removing the femur aseptically, the adherent soft tissue was separated from the bone. Using a syringe and a needle, the marrow was flushed using alpha minimum essential medium (α-MEM). Osteoclasts were obtained by culturing bone marrow cells (0.15×10^6 cells/well) in α-MEM containing 10% fetal bovine serum (FBS), 100 IU penicillin, 100 μg/mL of streptomycin and 100 ng/mL of recombinant murine M-CSF for 3 days in 48-well plates. The osteoclasts thus obtained were further cultured with RANKL±atorvastatin, S,S-enantiomer of atorvastatin or osteoprotegerin (OPG), for 5 days. […] In some experiments, the compounds were added on Day 5 postisolation.\n(§1) After washing twice with distilled water that was prewarmed to 37° C., the cells were incubated in acetate buffer containing naphthol AS-B1 and Fast Garnet GBC solution for 45 minutes at 37° C. TRAP-positive cells are typically brown in color when viewed under the microscope. The total number of TRAP-positive cells with 3 or more nuclei in each well were counted. TRAP activity is a phenotypic marker of mature osteoclasts."}, "[2]": {"tested_on": "RAW 264.7 cells", "experiment": "RANKL-induced osteoclastogenesis in RAW 264.7 cells (TRAP staining)", "type": "cell-based", "experimental": "Raw cells (2000/well) were stimulated with RANKL (50 ng/mL)±atorvastatin and S,S-enantiomer of atorvastatin for 5 days and TRAP staining was performed at the end of Day 5 and the data is expressed as % inhibition of number of TRAP-positive cells compared to control.\nRAW cells were plated at a density of 2000 cells/well in a 48-well plate and cultured overnight in alpha-MEM medium containing antibiotics. Cells were treated with either RANKL (50 ng/mL)±atorvastatin or the S,S-enantiomer of atorvastatin (10, 1, and 0.01 μM) for 5 days and stained for TRAP enzyme. Purple stained cells with three or more nuclei were counted under the microscope and represented as % inhibition of osteoclastogenesis compared to control cells.\nRAW cells were cultured in α-MEM containing 10% FBS, 100 IU penicillin, 100 μg/mL of streptomycin. Cells were plated at a density of 2000 cells/well in a 48-well plate. After overnight incubation, the cells were stimulated with RANKL (50 ng/mL)±atorvastatin, S,S-enantiomer of atorvastatin or OPG for 5 days and stained for TRAP at the end of Day 5.\nas §1, with “After initial wash with 1×PBS, the cells were fixed for 30 seconds using acetone based fixing solution containing acetone, citric acid and 37% formaldehyde. After” for “After”"}, "[3]": {"tested_on": "osteoclasts in ovariectomized rats", "experiment": "Osteoclast numbers in ovariectomized rats (tibia histomorphometry)", "type": "in vivo, rat", "settings": "for osteoclast numbers: 5 weeks", "experimental": "Rats were ovariectomized according to the standard protocol and were administered orally with various doses of atorvastatin (2.5, 5, and 10 mg/kg body weight) for 5 weeks. Tibiae were analyzed for osteoclast number by histomorphometry. Ethinyl estradiol (EE) (0.4 mg/kg), a known bone protective agent, was used as a positive control.\nOvariectomy-induced bone loss in rats is an established model of osteoporosis, wherein estrogen insufficiency leads to increased osteoclastogenesis, possibly due to enhanced cytokine production. To test whether statins decrease bone resorption in vivo, ovariectomized rats were given orally various doses of atorvastatin (2.5, 5, or 10 mg/kg body weight) for 5 weeks. At the end of the study, the animals were sacrificed, and histomorphometric analysis was performed on tibia obtained from the animals.\nThe rats were ovariectomized according to the standard protocol. Briefly, after anesthesia the rats were cleaned with antiseptic solution. A small incision was made on the back of the animal, and the ovaries were located carefully underneath the fat tissue. After proper clamping, ovaries were removed with a scalpel blade. Also, the fallopian tube with the uterine horn was sealed by electrocautery. Later, the skin incision was closed using wound clips. After recovery from the surgery, animals were randomized into 6 groups of 8 animals each (sham operated, OVX, OVX+ atorvastatin 2.5, 5, 10 mg/kg body weight and OVX+ ethinyl estradiol) and dosed with various concentrations of atorvastatin and vehicle control every day for a period of 5 weeks.\nHistomorphometric analysis was performed using decalcified sections of the proximal tibia for cancellous bone and undecalcified sections for cortical bone. Briefly, tibiae were decalcified using 10% ethylene diaminetetraacetic acid (EDTA), followed by […] in ascending concentrations of ethanol and embedded in glycol methacrylate (GMA) resin. The specimens were sectioned at 5 to 10 μm and stained with TRAP and counter stained with methyl green for determination of cellular parameters. Bone histomorphometry was performed using an OsteoMeasure image analysis system connected via a video system to a suitable light microscope."}, "[4]": {"tested_on": "osteoblast-osteoclast cocultures", "settings": "10 μM; cited from earlier work"}, "[5]": {"settings": "normal and ovariectomized (OVX) rats; cited from earlier work"}},
  "note": "Structures can show the parent of a compound that is named as a salt.",
  "data": [
    {"molecule": "CC(C)c1c(C(=O)Nc2ccccc2)c(-c2ccccc2)c(-c2ccc(F)cc2)n1CC[C@@H](O)C[C@@H](O)CC(=O)O", "note": "[atorvastatin, [R-(R*,R*)]-2-(4-fluorophenyl)-β,δ-dihydroxy-5-(1-methylethyl)-3-phenyl-4-[(phenylamino)carbonyl]-1H-pyrrole-1-heptanoic acid calcium salt (2:1) trihydrate]", "values": [
      {"measurement": "number of TRAP-positive, multinucleated cells", "setting": "[1]; 0.01 nM to 1 μM", "result": "significantly reduced"},
      {"measurement": "IC50", "setting": "[1]; Mus musculus, primary murine bone marrow cell cultures, read-out: IC50, number of TRAP-positive, multinucleated cells", "result": 0.00043, "unit": "µM"},
      {"measurement": "number of TRAP-positive cells formed", "setting": "[1]", "result": "able to block"},
      {"measurement": "effect when added on Day 5 compared with Day 3 postisolation", "setting": "[1]; time course", "result": "much more pronounced"},
      {"measurement": "number of TRAP-positive, multinucleated cells", "setting": "[2]; 0.01 nM to 1 μM", "result": "significantly reduced"},
      {"measurement": "inhibition at 0.01 µM", "setting": "[2]; Mus musculus, RAW264.7, 120 h, 0.01 micromolar, 5 days, RANKL 50 ng/mL, read-out: % inhibition of RANKL-induced multinucleated cell formation", "result": "~80", "unit": "%"},
      {"measurement": "IC50", "setting": "[2]; Mus musculus, RAW264.7, RAW cells, read-out: IC50, number of TRAP-positive, multinucleated cells", "result": 0.17, "unit": "µM"},
      {"measurement": "osteoclast numbers", "setting": "[3]; 5 mg/kg orally, ovariectomized rats", "result": "significantly decreased"},
      {"measurement": "osteoclast numbers", "setting": "[3]; 10 mg/kg orally, ovariectomized rats", "result": "significantly decreased"},
      {"measurement": "decrease of osteoclast formation compared with ethinyl estradiol", "setting": "[3]; both 5 and 10 mg/kg doses, ethinyl estradiol positive control", "result": "more effective"},
      {"measurement": "number of osteoclasts formed", "setting": "[3]; daily oral 2.5-10 mg/kg body weight, 5-week period, ovariectomized rats", "result": "significantly decreased"}
    ]},
    {"molecule": "(3S,5S)-7-[2-(4-fluorophenyl)-5-isopropyl-3-phenyl-4-phenylcarbamoyl-pyrrol-1-yl]-3,5-dihydroxy-heptanoic acid calcium salt (2:1) [S,S-enantiomer of atorvastatin]", "values": [
      {"measurement": "number of TRAP-positive cells formed", "setting": "[1]", "result": "no differences were observed"},
      {"measurement": "% inhibition of RANKL-induced multinucleated cell formation, compared with atorvastatin", "setting": "[2]; 10, 1, and 0.01 μM, 5 days, RANKL 50 ng/mL", "result": "significantly less % inhibition"}
    ]},
    {"molecule": "CC[C@H](C)C(=O)O[C@H]1C[C@@H](C)C=C2C=C[C@H](C)[C@H](CC[C@@H]3C[C@@H](O)CC(=O)O3)[C@H]21", "note": "[lovastatin]", "values": [
      {"measurement": "tartrate-resistant acid phosphatase (TRAP) activity", "setting": "[4]", "result": "inhibits"},
      {"measurement": "increase in total bone area compared to BMP-2 or b-FGF", "setting": "[5]", "result": "greater dose-dependent increase"}
    ]},
    {"molecule": "osteoprotegerin (protein, UniProt O00300 22-401, looked up, soluble decoy receptor for RANKL) Tumor necrosis factor …: ETFPPKYLHYDEETSHQLLCDKCPPGTYLKQHCTAKWKTVCAPCPDHYYTDSWHTSDECLYCSPVCKELQYVKQECNRTHNRVCECKEGRYLEIEFCLKHRSCPPGFGVVQAGTPERNTVCKRCPDGFFSNETSSKAPCRKHTNCSVFGLLLTQKGNATHDNICSGNSESTQKCGIDVTLCEEAFFRFAVPTKFTPNWLSVLVDNLPGTKVNAESVERIKRQHSSQEQTFQLLKLWKHQNKDQDIVKKIIQDIDLCENSVQRHIGHANLTFEQLRSLMESLPGKKVGAEDIEKTIKACKPSDQILKLLSLWRIKNGDQDTLKGLMHALKHSKTYHFPKTVTQSLKKTIRFLHSFTMYKLYQKLFLEMIGNQVQSVKISCL", "values": [
      {"measurement": "number of TRAP-positive multinucleated cells formed by RANKL", "setting": "[1]; 50 ng/mL added simultaneously with RANKL", "result": "completely inhibited"}
    ]}
  ]
}
